According to patent US11040981B2, “Pyrrolotriazine compounds and methods of inhibiting TAM kinases” (Syros Pharmaceuticals, Inc., priority 2017, dated 2021):

Legend:
FLT3 = target: T1, FLT3 (Homo sapiens, UniProt P36888); assay: TR-FRET kinase activity assay, FLT3; format: biochemical; conditions: ATP at Km, 60 minutes
T1 sequence (P36888 27-993): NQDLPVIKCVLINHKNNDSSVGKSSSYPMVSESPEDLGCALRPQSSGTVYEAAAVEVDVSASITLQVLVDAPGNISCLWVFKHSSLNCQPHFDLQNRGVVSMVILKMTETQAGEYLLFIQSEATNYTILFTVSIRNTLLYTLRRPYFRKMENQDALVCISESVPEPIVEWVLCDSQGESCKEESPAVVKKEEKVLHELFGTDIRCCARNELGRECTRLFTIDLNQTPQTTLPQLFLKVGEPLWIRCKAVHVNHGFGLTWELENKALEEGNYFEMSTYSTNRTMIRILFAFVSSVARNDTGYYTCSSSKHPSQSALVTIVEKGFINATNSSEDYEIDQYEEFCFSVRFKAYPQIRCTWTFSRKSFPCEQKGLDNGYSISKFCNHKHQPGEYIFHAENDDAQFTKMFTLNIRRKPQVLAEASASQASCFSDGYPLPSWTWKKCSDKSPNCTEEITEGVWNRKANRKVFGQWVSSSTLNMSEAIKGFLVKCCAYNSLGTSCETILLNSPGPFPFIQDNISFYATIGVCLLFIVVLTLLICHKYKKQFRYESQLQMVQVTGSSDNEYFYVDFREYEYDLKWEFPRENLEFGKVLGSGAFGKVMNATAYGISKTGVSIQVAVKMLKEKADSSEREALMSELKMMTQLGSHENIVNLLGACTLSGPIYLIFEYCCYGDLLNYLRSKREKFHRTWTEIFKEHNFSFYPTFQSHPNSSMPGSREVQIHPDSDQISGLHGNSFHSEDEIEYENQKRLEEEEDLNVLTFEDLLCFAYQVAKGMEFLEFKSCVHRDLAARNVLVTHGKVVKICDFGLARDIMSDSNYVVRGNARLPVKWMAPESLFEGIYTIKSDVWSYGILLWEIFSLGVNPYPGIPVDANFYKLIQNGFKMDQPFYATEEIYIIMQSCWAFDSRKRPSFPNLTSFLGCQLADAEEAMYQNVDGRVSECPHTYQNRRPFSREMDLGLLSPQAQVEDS
Method in brief: (§1)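 Enzyme + labelled peptide + cpd premixed; ATP at per-enzyme Km starts rxn. 60 min RT, HEPES pH 7.5/MgCl2/EGTA/Brij 35/DTT buffer. Stop 12.5 mM EDTA, Eu phospho-Ab 30 min dark, TR-FRET read → IC50.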

MERTK = target: T2, MERTK (Homo sapiens, UniProt Q12866); assay: TR-FRET kinase activity assay, MERTK; format: biochemical; conditions: for IC50: TR-FRET activity assay, ATP at Km, 60 minutes, read-out: Mer IC50; for FLT3/Mer ratio (FLT3 IC50/Mer IC50): ratio of Mer to FLT3: FLT3 IC50/Mer IC50
T2 sequence (Q12866 21-999): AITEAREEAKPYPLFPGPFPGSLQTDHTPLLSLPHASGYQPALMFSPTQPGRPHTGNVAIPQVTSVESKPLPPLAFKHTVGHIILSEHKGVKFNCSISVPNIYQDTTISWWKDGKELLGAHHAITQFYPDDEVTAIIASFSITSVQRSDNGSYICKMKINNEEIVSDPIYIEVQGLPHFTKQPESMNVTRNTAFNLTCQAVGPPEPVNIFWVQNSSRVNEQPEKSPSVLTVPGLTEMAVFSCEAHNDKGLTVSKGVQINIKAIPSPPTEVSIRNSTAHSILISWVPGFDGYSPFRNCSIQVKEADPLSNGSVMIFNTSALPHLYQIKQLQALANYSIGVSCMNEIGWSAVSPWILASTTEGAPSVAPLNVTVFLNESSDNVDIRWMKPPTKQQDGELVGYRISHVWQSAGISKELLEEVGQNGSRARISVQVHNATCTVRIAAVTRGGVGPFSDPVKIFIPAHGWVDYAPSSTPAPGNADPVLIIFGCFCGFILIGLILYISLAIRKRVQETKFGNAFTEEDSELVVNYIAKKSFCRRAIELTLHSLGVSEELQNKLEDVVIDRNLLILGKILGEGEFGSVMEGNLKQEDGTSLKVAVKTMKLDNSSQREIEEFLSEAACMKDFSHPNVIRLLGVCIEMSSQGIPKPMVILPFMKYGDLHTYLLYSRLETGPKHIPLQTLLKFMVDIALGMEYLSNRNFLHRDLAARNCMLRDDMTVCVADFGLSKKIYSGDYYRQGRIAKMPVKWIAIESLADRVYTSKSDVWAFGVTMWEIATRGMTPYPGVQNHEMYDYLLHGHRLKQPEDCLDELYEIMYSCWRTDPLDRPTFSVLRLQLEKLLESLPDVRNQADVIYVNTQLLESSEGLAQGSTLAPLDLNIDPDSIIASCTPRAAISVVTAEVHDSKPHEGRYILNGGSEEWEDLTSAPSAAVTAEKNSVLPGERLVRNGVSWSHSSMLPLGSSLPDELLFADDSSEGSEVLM
Method in brief: as §1

| IC50 (FLT3) [nM] | IC50 (MERTK) [nM] | FLT3/Mer ratio (FLT3 IC50/Mer IC50) (MERTK) | Compound |
| --- | --- | --- | --- |
| 1000 to 10000 | ≤ 100 | +++ (“+++” represents a ratio of >100) | COC[C@H](C)Nc1ncc2c(-c3cn(C[Si](C)(C)C)nn3)cc([C@H]3CC[C@H](O)CC3)n2n1 [Compound 248] |
| 100 to 1000 | ≤ 100 | +++ (“+++” represents a ratio of >100) | COC[C@H](C)Nc1ncc2c(-c3ccc4c(c3)CC(=O)N4)cc([C@H]3CC[C@H](O)CC3)n2n1 [Compound 251] |
| 100 to 1000 | ≤ 100 | +++ (“+++” represents a ratio of >100) | COC[C@H](C)Nc1ncc2c(-c3ccc4c(c3)CNC4=O)cc([C@H]3CC[C@H](O)CC3)n2n1 [Compound 252] |
| 1000 to 10000 | ≤ 100 | +++ (“+++” represents a ratio of >100) | COC[C@H](C)Nc1ncc2c(-c3cc(C)ccn3)cc([C@H]3CC[C@H](O)CC3)n2n1 [Compound 257] |
| ≤ 100 | ≤ 100 | +++ (“+++” represents a ratio of >100) | COCCn1cc(-c2cc([C@H]3CC[C@H](O)CC3)n3nc(N[C@@H](C)CC(F)(F)F)ncc23)cn1 [Compound 262] |
| 1000 to 10000 | ≤ 100 | +++ (“+++” represents a ratio of >100) | COC[C@H](C)Nc1ncc2c(-c3cnn(CC(C)(C)O)c3)cc([C@H]3CC[C@H](O)CC3)n2n1 [Compound 264] |
| 1000 to 10000 | ≤ 100 | +++ (“+++” represents a ratio of >100) | COC[C@H](C)Nc1ncc2c(-c3cnn(C(C)(C)CO)c3)cc([C@H]3CC[C@H](O)CC3)n2n1 [Compound 265] |
| 100 to 1000 | ≤ 100 | +++ (“+++” represents a ratio of >100) | COC[C@H](C)Nc1ncc2c(-c3cnn(CC4(C#N)CC4)c3)cc([C@H]3CC[C@H](O)CC3)n2n1 [Compound 266] |
| ≤ 100 | ≤ 100 | +++ (“+++” represents a ratio of >100) | C[C@@H](COC(F)F)Nc1ncc2c(-c3cnn(C4COC4)c3)cc([C@H]3CC[C@H](O)CC3)n2n1 [Compound 270] |

Further lines, the molecule ahead of its results:

| Compound | IC50 (FLT3) [nM] | IC50 (MERTK) [nM] | FLT3/Mer ratio (FLT3 IC50/Mer IC50) (MERTK) |
| --- | --- | --- | --- |
| COC[C@H](C)Nc1ncc2c(-c3ccc4c(c3)NC(=O)C4)cc([C@H]3CC[C@H](O)CC3)n2n1 [Compound 249] | 100 to 1000 | ≤ 100 | +++ (“+++” represents a ratio of >100) |
| COC[C@H](C)Nc1ncc2c(-c3cn(C)nn3)cc([C@H]3CC[C@H](O)CC3)n2n1 [Compound 250, (trans)-4-(2-(((S)-1-methoxypropan-2-yl)amino)-5-(1-methyl-1H-1,2,3-triazol-4-yl)pyrrolo[2,1-f][1,2,4]triazin-7-yl)cyclohexanol] | 1000 to 10000 | ≤ 100 | +++ (“+++” represents a ratio of >100) |
| COCC(C)Nc1ncc2c(-c3cccc(C)n3)cc(C3CCC(O)CC3)n2n1 (stereo not drawn) [Compound 253] | 1000 to 10000 | ≤ 100 | +++ (“+++” represents a ratio of >100) |
| COC[C@H](C)Nc1ncc2c(-c3ccc(N4CCOCC4)nc3)cc([C@H]3CC[C@H](O)CC3)n2n1 [Compound 254] | 100 to 1000 | ≤ 100 | +++ (“+++” represents a ratio of >100) |
| CC(CCOC(F)F)Nc1ncc2c(-c3ccc(CN4CCOCC4)cc3)cc(C3CCC(O)CC3)n2n1 (stereo not drawn) [Compound 255] | ≤ 100 | ≤ 100 | ++ (“++” represents a ratio of between 10 and 100) |
| COC[C@H](C)Nc1ncc2c(-c3ccnc(N4CCN(C)CC4)c3)cc([C@H]3CC[C@H](O)CC3)n2n1 [Compound 256] | 100 to 1000 | ≤ 100 | +++ (“+++” represents a ratio of >100) |
| COC[C@H](C)Nc1ncc2c(-c3ccc(C)cn3)cc([C@H]3CC[C@H](O)CC3)n2n1 [Compound 258] | 1000 to 10000 | ≤ 100 | ++ (“++” represents a ratio of between 10 and 100) |
| COC[C@H](C)Nc1ncc2c(-c3ccnc(N4CCOCC4)c3)cc([C@H]3CC[C@H](O)CC3)n2n1 [Compound 259] | 100 to 1000 | ≤ 100 | +++ (“+++” represents a ratio of >100) |
| COC[C@H](C)Nc1ncc2c(-c3cn(C)nc3C)cc([C@H]3CC[C@H](O)CC3)n2n1 [Compound 260] | 100 to 1000 | ≤ 100 | +++ (“+++” represents a ratio of >100) |
| COC[C@H](C)Nc1ncc2c(-c3cnc(C)o3)cc([C@H]3CC[C@H](O)CC3)n2n1 [Compound 261] | 1000 to 10000 | ≤ 100 | +++ (“+++” represents a ratio of >100) |
| CNC(=O)c1ccc(-c2cc([C@H]3CC[C@H](O)CC3)n3nc(N[C@@H](C)CC(F)(F)F)ncc23)cn1 [Compound 263] | ≤ 100 | ≤ 100 | ++ (“++” represents a ratio of between 10 and 100) |
| COC[C@H](C)Nc1ncc2c(-c3cnnc(C)c3)cc([C@H]3CC[C@H](O)CC3)n2n1 [Compound 267] | 1000 to 10000 | ≤ 100 | +++ (“+++” represents a ratio of >100) |
| Cc1cc(-c2cc([C@H]3CC[C@H](O)CC3)n3nc(N[C@@H](C)CC(F)(F)F)ncc23)cnn1 [Compound 268] | 100 to 1000 | ≤ 100 | +++ (“+++” represents a ratio of >100) |
| C[C@@H](CC(F)(F)F)Nc1ncc2c(-c3cnn(C4COC4)c3)cc([C@H]3CC[C@H](O)CC3)n2n1 [Compound 269] | ≤ 100 | ≤ 100 | ++ (“++” represents a ratio of between 10 and 100) |
